Source: patent US10913709B2, “STAT3 inhibitor formulation” (priority 2017, dated 2021)

Tests used:
[1] = tested on: DMBA-induced mammary cancer; experiment: Chemoprevention study of DMBA-induced mammary cancer
From the text: The negative control group received vehicle (purified water) only. In order to accelerate tumor formation, the mice were also given 7,12-dimethylbenz[a]anthracene (DMBA) by gavage 1 time/week for 4 weeks beginning at 57 days of age. The study was terminated 4 months after DMBA exposure. During the treatment period, the body weights of the mice and the appearance of palpable mammary tumors were monitored on a weekly and twice-weekly basis, respectively.

[2] = Aqueous solubility in the presence of various bases (Example 1); type: physicochemical
From the text: (§1) The resulting mixtures were examined for both solubility and stability with the results being analyzed high-performance liquid chromatography (HPLC) with UV and mass spectroscopy detection.

[3] = Body weight and toxicity during the chemoprevention study; type: in vivo, female MMTV/Neu mice; conditions: gavage 5 times/week, 500, 250, and 100 mg/kg BW/day, throughout the experiment
Ki67 expression = Ki67 expression in normal mammary gland, immunohistochemical analysis; conditions: two weeks of treatment
Description: Ki67 expression was assessed by immunohistochemical analysis of the normal ductal epithelium. Stained sections were scanned and quantitated using automated image analysis software.

[4] = Stability in acetonitrile extract (post sample preparation); type: physicochemical; conditions: 6 days
Description: In particular, once the centrifugation was performed on the blood samples to provide the plasma samples for analysis, extraction into acetonitrile was done as quickly as possible (e.g., <1 hour).

[5] = Observation for toxicity and mortality in the PK study; type: in vivo
Description: Mice were weighed within 72 hours of receipt and again on Study Day −1. Mice were observed once daily prior to day 0, and at least twice daily beginning on day 0 for 24 hours post-dose for morbidity and moribundity.

[6] = Plasma stability in mouse plasma; type: in vitro ADME
Description: An hour-by-hour analysis was then conducted, showing a marked decrease at ambient conditions (see Table 4). […] It should be noted that the time measurement for ambient is listed in hours (Table 4) compared with the time for the −20° C., which was measured in days (Table 5).

[7] = cited from earlier work
[8] = Stability in water in the presence of various bases, HPLC with UV and MS detection (Example 1); type: physicochemical
From the text: as §1

Cc1ccc(S(=O)(=O)OCC(=O)Nc2ccc(C(=O)O)c(O)c2)cc1 [Compound 1]
effect in preventing breast cancer ([1]; 500 mg/kg BW/day by gavage): greatest effect | onset of DMBA-induced breast cancer ([1]; all doses tested (500, 250, and 100 mg/kg BW/day by gavage)): able to delay the onset | incidence, multiplicity, and weights of mammary tumors compared to the vehicle-only control ([1]; gavage 5 times/week, 500, 250, and 100 mg/kg BW/day, DMBA-accelerated, 4 months): dose-dependent decrease | solubility in water ([2]; water): highly soluble in water | weight loss or toxicity [3]: No weight loss or toxicity was observed | inhibition of Ki67 (Ki67 expression; 250 mg/kg BW/day): 85% | inhibition of Ki67 (Ki67 expression; 500 mg/kg BW/day): 83% | stability in an acetonitrile extract [4]: little/no degradation | signs of toxicity post-dose ([5]; groups A-H: IV 50 mg/kg, PO 500, 250, 125 mg/kg, observed 24 hours post-dose): None of the mice in groups A-H demonstrated signs of toxicity | mortality ([5]; oral or IV administration, any of the doses administered): no mortality | recovery at 0 h ([6]; ambient conditions, 0 hours): 88.6% | recovery at 1 h ([6]; ambient conditions, 1 hour): 61.2% | recovery at 2 h ([6]; ambient conditions, 2 hours): 52.6% | recovery at 3 h ([6]; ambient conditions, 3 hours): 28.7% | recovery at 5 h ([6]; ambient conditions, 5 hours): 21.3% | recovery at 6 h ([6]; ambient conditions, 6 hours): 15.8% | plasma stability, daily assessment ([6]; samples assessed daily, no free acid observed after 1 day): stability was short | recovery at 0 days ([6]; −20° C., 0 days): 94.5% | recovery at 1 days ([6]; −20° C., 1 day): 76.6% | recovery at 2 days ([6]; −20° C., 2 days): 65.7% | recovery at 3 days ([6]; −20° C., 3 days): 58% | recovery at 6 days ([6]; −20° C., 6 days): 46.6%

Cc1ccc(S(=O)(=O)OCC(=O)Nc2ccc(C(=O)O)c(O)c2)cc1 [NSC-74859]
solubility ([2]; water with 1.1 molar equivalents of TRIZMA base, aqueous buffer, thermodynamic from solid, with 1.1 molar equivalents TRIZMA (2-amino-2-(hydroxymethyl)-1,3-propanediol), pH 7 water): ~60 mg/mL | aqueous solubility ([2]; with 1.1 molar equivalents of base in water, all bases examined (LiOH, NaOH, K2CO3, NaHCO3, TRIZMA)): good aqueous solubility | solubility in water and ethanol [7]: poorly soluble in water and ethanol | degradation (loss of the tosylate group) ([8]; in stronger bases, such as sodium hydroxide, in water): Degradation was much more pronounced | time the product remained stable ([8]; with TRIZMA, in water at room temperature, initial analysis): ~8 h
